Data taken from patent US10106782B2, “High-titer HCV full-length genotype 2B infectious cell culture systems and applications thereof” (Hvidovre Hospital, priority 2013, dated 2018).
Entries after “also recorded” stand apart in the source; their conditions may differ.

Legend:
[1] = tested on: Huh7.5 cells; test: Transfection of Huh7.5 cells with RNA transcripts of full-length HCV recombinants; format: cell-based; conditions: for HCV infectivity titers / HCV positive cells detected: after transfection; for spread of infection (≥80% HCV-antigen positive cells): day after transfection
Protocol: (§1) Transfection and passage of recombinant full-length HCV in Huh7.5 cells. Transfections with RNA transcripts were performed as reported. For viral passage, cell free supernatants were incubated with […] Huh7.5 cells overnight. Cultures were split every 2-3 days and progression of infection was monitored by immunostaining on cells seeded in slides and co-stained with primary antibodies anti-core C7-50 (Enzo Life Sciences) and anti-NS5A 9E108, at dilution 1/25010. Infectivity titers expressed as Log 10 Focus Forming Units (FFU)/mL were determined as described. To improve staining, we used a mixture of anti-core C7- and anti-NS5A 9E10 at dilutions 1/450 and 1/1000, respectively. HCV RNA titers (IU/mL) on passage supernatants with peak infectivity titers were determined as previously described.

[2] = tested on: Huh7.5 cells; test: Viral passage of recombinant full-length HCV to naive Huh7.5 cells; format: cell-based
Protocol: as §1

[3] = tested on: 2a recombinant J6core-NS2/JFH1, referred to as JFH1; test: Antiviral treatment of HCV infected Huh7.5 cultures, high throughput assay, virus JFH1; format: cell-based, hepatitis C virus; conditions: for inhibition of virus (concentration-response): JFH1(2a) in Huh7.5 cells, non-cytotoxic drug concentrations
Protocol: (§2) HCV infected cultures were treated with NS3 Protease, NS5A, and NS5B polymerase inhibitors (purchased from Acme Bioscience) in a high throughput assay. Immunostaining of fixed 96-well plates was performed using anti-core C7- and anti-NS5A 9E10 at dilutions 1/450 and 1/1000, respectively.
(§3) Concentration-response curves and EC50 values were calculated. The non-cytotoxic dose ranges for all drugs were determined with a cytotoxicity assay (CellTiter 96 AQueous One Solution Cell Proliferation Assay, Promega).
(§4) HCV genetic divergence influences the sensitivity to lead direct acting antivirals. Our developed full-length culture systems permit the study of frontline HCV DAAs in the context of the complete HCV life cycle. Thus, we determined the efficacy of DAAs targeting different viral proteins against genotype 1a (strain TN), 2a (strain J6 and recombinant J6core-NS2/JFH18, referred to as JFH1, since it has the JFH1 protease, NS5A and NS5B), and 2b (strains DH8, J8, and DH10). For 2b viruses we used 3rd passage DH8_LSG, 5th passage J8cc, and 3rd passage DH10_LSG (FIGS. 6-10).

[4] = tested on: genotype 1a (strain TN) full-length virus; test: Antiviral treatment of HCV infected Huh7.5 cultures, high throughput assay, virus TN; format: cell-based, hepatitis C virus; conditions: for EC50 / sensitivity of virus, stated in words: TN(1a), numbers only in FIG. 11; for inhibition of virus (concentration-response): TN(1a) in Huh7.5 cells, non-cytotoxic drug concentrations
Protocol: as §2, §3, §4

[5] = tested on: genotype 2b strain DH8 (3rd passage DH8_LSG); test: Antiviral treatment of HCV infected Huh7.5 cultures, high throughput assay, virus DH8; format: cell-based, hepatitis C virus; conditions: DH8(2b) in Huh7.5 cells; non-cytotoxic drug concentrations
Protocol: as §2, §3, §4

[6] = tested on: genotype 2b strain J8 (5th passage J8cc); test: Antiviral treatment of HCV infected Huh7.5 cultures, high throughput assay, virus J8; format: cell-based, hepatitis C virus; conditions: for inhibition of virus (concentration-response): J8(2b) in Huh7.5 cells, non-cytotoxic drug concentrations
Protocol: as §2, §3, §4

[7] = tested on: genotype 2a (strain J6) full-length virus; test: Antiviral treatment of HCV infected Huh7.5 cultures, high throughput assay, virus J6; format: cell-based, hepatitis C virus; conditions: for inhibition of virus (concentration-response): J6(2a) in Huh7.5 cells, non-cytotoxic drug concentrations; for EC50 / sensitivity of virus, stated in words: J6(2a), numbers only in FIG. 11
Protocol: as §2, §3, §4

[8] = tested on: genotype 2b strain DH10 (3rd passage DH10_LSG); test: Antiviral treatment of HCV infected Huh7.5 cultures, high throughput assay, virus DH10; format: cell-based, hepatitis C virus; conditions: DH10(2b) in Huh7.5 cells; non-cytotoxic drug concentrations
Protocol: as §2, §3, §4

Compound | HCV infectivity titers [1] | spread of infection (≥80% HCV-antigen positive cells) [1] | inhibition of virus (concentration-response) [5] | inhibition of virus (concentration-response) [6] | inhibition of virus (concentration-response) [7] | inhibition of virus (concentration-response) [8] | inhibition of virus (concentration-response) [3] | inhibition of virus (concentration-response) [4] | other results
J8cc/M292L/L612M/G1154A/N1217Y/Q1763R/I2440T: J8 cell culture, high titer recombinant, SEQ ID NO 14, KF420338 | 4.7 Log 10 FFU/mL | 3 days | – | – | – | – | – | – | –
DH8_LSG/L758S/A1790T/V1951A/I2439T: DH8 full-length recombinant named DH8cc, SEQ ID NO 8, KF420336 | 4.1 Log 10 FFU/mL | 6 days | – | – | – | – | – | – | HCV infectivity titers ([2]; 1st passage): 4.4 Log 10 FFU/mL; HCV infectivity titers ([2]; 2nd passage): 4.3 Log 10 FFU/mL
C=C[C@@H]1C[C@]1(NC(=O)[C@@H]1C[C@@H]2CN1C(=O)[C@H](C(C)(C)C)NC(=O)O[C@@H]1C[C@H]1CCCCCc1nc3ccc(OC)cc3nc1O2)C(=O)NS(=O)(=O)C1CC1 [MK-5172] | – | – | – | – | – | – | – | – | EC50 / sensitivity of virus, stated in words ([3]; JFH1(2a), numbers only in FIG. 11): most sensitive viruses; EC50 / sensitivity of virus, stated in words [4]: most sensitive viruses
DH8CF: full-length HCV genotype 2b consensus clone of strain DH8, SEQ ID NO 1, KF420335 | – | – | – | – | – | – | – | – | HCV positive cells detected [1]: No HCV positive cells were detected
CC(C)C(=O)OC[C@H]1O[C@@H](n2ccc(N)nc2=O)[C@](C)(F)[C@@H]1OC(=O)C(C)C [Mericitabine] | – | – | inhibited 1a, 2a, and 2b viruses in a dose-dependent manner | inhibited 1a, 2a, and 2b viruses in a dose-dependent manner | inhibited 1a, 2a, and 2b viruses in a dose-dependent manner | inhibited 1a, 2a, and 2b viruses in a dose-dependent manner | inhibited 1a, 2a, and 2b viruses in a dose-dependent manner | inhibited 1a, 2a, and 2b viruses in a dose-dependent manner | EC50 / sensitivity of virus, stated in words [7]: most sensitive virus
CC(C)(C)C#Cc1cc(N(C(=O)[C@H]2CC[C@H](C)CC2)[C@H]2CC[C@H](O)CC2)c(C(=O)O)s1 [VX-222] | – | – | no or very limited inhibition; also recorded: not inhibited | no or very limited inhibition; also recorded: not inhibited | no or very limited inhibition; also recorded: not inhibited | no or very limited inhibition; also recorded: not inhibited | no or very limited inhibition; also recorded: not inhibited | inhibited TN(1a) in a dose dependent manner | EC50 / sensitivity of virus, stated in words [4]: most potent inhibitor
CCc1cc(CC[C@]2(C3CCCC3)CC(O)=C(Cc3nc4nc(C)cc(C)n4n3)C(=O)O2)cc(CC)n1 [Filibuvir] | – | – | no or very limited inhibition; also recorded: not inhibited | no or very limited inhibition; also recorded: not inhibited | no or very limited inhibition; also recorded: not inhibited | no or very limited inhibition; also recorded: not inhibited | no or very limited inhibition; also recorded: not inhibited | inhibited TN(1a) in a dose dependent manner | –
DH8_LSG/L884P/V1951A/I2440T/L3021F: efficient full-length infectious DH8 recombinant, SEQ ID NO 7, KF420337 | 3.8 Log 10 FFU/mL | 6 days | – | – | – | – | – | – | HCV infectivity titers ([2]; 2nd passage): 3.9 Log 10 FFU/mL
COc1ccc2c(O[C@@H]3C[C@H]4C(=O)N[C@]5(C(=O)NS(=O)(=O)C6CC6)C[C@H]5/C=C\CCCCN(C)C(=O)[C@@H]4C3)cc(-c3nc(C(C)C)cs3)nc2c1C [Simeprevir] | – | – | – | – | – | – | – | – | EC50 / sensitivity of virus, stated in words ([6]; J8(2b), numbers only in FIG. 11): lower EC50
DH8_LSG: DH8CF containing LSG mutations F1468L/A1676S/D3001G, SEQ ID NO:2 | 3.1-3.9 Log 10 FFU/mL | 36 to 53 days | – | – | – | – | – | – | HCV infectivity titers ([2]; 1st passage): 3.1-4.2 Log 10 FFU/mL; spread of infection ([2]; 1st viral passage): 5 to 8 days; HCV infectivity titers ([2]; 3rd passage of transfection 1 culture A): 4.7 Log 10 FFU/mL; HCV positive cells detected [1]: ≥ 1 days
CC(C)OC(=O)[C@H](C)N[P@](=O)(OC[C@H]1O[C@@H](n2ccc(=O)[nH]c2=O)[C@](C)(F)[C@@H]1O)Oc1ccccc1 [Sofosbuvir] | – | – | inhibited 1a, 2a, and 2b viruses in a dose-dependent manner | inhibited 1a, 2a, and 2b viruses in a dose-dependent manner | inhibited 1a, 2a, and 2b viruses in a dose-dependent manner | inhibited 1a, 2a, and 2b viruses in a dose-dependent manner | inhibited 1a, 2a, and 2b viruses in a dose-dependent manner | inhibited 1a, 2a, and 2b viruses in a dose-dependent manner | EC50 / sensitivity of virus, stated in words [7]: most sensitive virus
J8_LSG/L758S/A1790T/V1951A/I2440T: efficient J8 virus with authentic NS3 protease, SEQ ID NO 15, KF420339 | 3.8 Log 10 FFU/mL | 5 days | – | – | – | – | – | – | –
Cn1c(C2(NC(=O)c3ccc4c(C5CCCC5)c(-c5ncc(Br)cn5)n(C)c4c3)CCC2)nc2ccc(/C=C/C(=O)O)cc21 [BI207127] | – | – | inhibit all viruses in a dose dependent manner | inhibit all viruses in a dose dependent manner | inhibit all viruses in a dose dependent manner | inhibit all viruses in a dose dependent manner | inhibit all viruses in a dose dependent manner | inhibit all viruses in a dose dependent manner | EC50 / sensitivity of virus, stated in words [4]: most sensitive virus
